Measured values reported in PubChem BioAssay AID248 (DTP/NCI, 2004).
Values joined by “and” are separate entries in the source; they are usually repeats but may differ in a detail not shown here. Identical values can stand only once. Inconclusive results and toxic doses are left out. Peptide text beside a SMILES is read from it. * marks the point of attachment. Trt = c1ccc(C(c2ccccc2)(c2ccccc2)*)cc1; Boc = CC(C)(C)OC(=O)*

System: L1210 leukemia ip in BDF1 mice, survival T/C
Assay: NCI In Vivo Anticancer Drug Screen. Data for tumor model L1210 Leukemia (intraperitoneal) in B6D2F1 (BDF1) mice
Details: endpoint: mean survival time, higher = longer survival
Procedure, shortened: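 Ratio derived from survival: compound-dosed mice over vehicle-dosed mice, all bearing a transplantable tumor.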

[1] = dose: 50.0 mg/kg/injection, schedule: Q01DX009 (ip), vehicle: saline with Tween-80
[2] = dose: 100.0 mg/kg/injection, schedule: Q01DX009 (ip), vehicle: saline with Tween-80
[3] = dose: 100.0 mg/kg/injection, schedule: Q04DX002 (ip), vehicle: saline with Tween-80
[4] = dose: 100.0 mg/kg/injection, schedule: Q04DX003 (ip), vehicle: saline with Tween-80
[5] = dose: 200.0 mg/kg/injection, schedule: Q01DX009 (ip), vehicle: saline with Tween-80
[6] = dose: 200.0 mg/kg/injection, schedule: Q04DX002 (ip), vehicle: saline with Tween-80
[7] = dose: 400.0 mg/kg/injection, schedule: Q04DX003 (ip), vehicle: saline with Tween-80
[8] = dose: 100.0 mg/kg/injection, schedule: Q01DX001 (ip), vehicle: saline
[9] = dose: 200.0 mg/kg/injection, schedule: Q01DX001 (ip), vehicle: saline
[10] = dose: 25.0 mg/kg/injection, schedule: Q01DX009 (ip), vehicle: saline with Tween-80
[11] = dose: 400.0 mg/kg/injection, schedule: Q04DX002 (ip), vehicle: saline with Tween-80
[12] = dose: 200.0 mg/kg/injection, schedule: Q04DX003 (ip), vehicle: saline with Tween-80
[13] = dose: 100.0 mg/kg/injection, schedule: Q04DX003 (ip), vehicle: Klucel (hydroxypropylcellulose) (HPC)
[14] = dose: 200.0 mg/kg/injection, schedule: Q04DX003 (ip), vehicle: Klucel (hydroxypropylcellulose) (HPC)
[15] = dose: 400.0 mg/kg/injection, schedule: Q04DX003 (ip), vehicle: Klucel (hydroxypropylcellulose) (HPC)
[16] = dose: 100.0 mg/kg/injection, schedule: Q01DX009 (ip), vehicle: Klucel (hydroxypropylcellulose) (HPC)
[17] = dose: 200.0 mg/kg/injection, schedule: Q01DX009 (ip), vehicle: Klucel (hydroxypropylcellulose) (HPC)
[18] = dose: 400.0 mg/kg/injection, schedule: Q01DX009 (ip), vehicle: Klucel (hydroxypropylcellulose) (HPC)
[19] = dose: 400.0 mg/kg/injection, schedule: Q01DX001 (ip), vehicle: saline
[20] = dose: 400.0 mg/kg/injection, schedule: Q01DX009 (ip), vehicle: saline with Tween-80

COC(=O)N1c2ccccc2C=CC1C#N (stereo not given)
T/C (dose: 44.0 mg/kg/injection, schedule: Q04DX002 (ip), vehicle: saline with Tween-80): 151 % of control | T/C (dose: 44.0 mg/kg/injection, schedule: Q04DX003 (ip), vehicle: saline with Tween-80): 109 % of control | T/C (dose: 44.0 mg/kg/injection, schedule: Q04DX003 (ip), vehicle: saline): 108 % of control | T/C [1]: 104 % of control | T/C (dose: 66.0 mg/kg/injection, schedule: Q04DX002 (ip), vehicle: saline with Tween-80): 173 % of control | T/C (dose: 66.0 mg/kg/injection, schedule: Q04DX003 (ip), vehicle: saline with Tween-80): 103 % of control | T/C (dose: 66.0 mg/kg/injection, schedule: Q04DX003 (ip), vehicle: saline): 101 % of control | T/C (dose: 100.0 mg/kg/injection, schedule: Q01DX001 (ip), vehicle: saline with Tween-80): 106 % of control | T/C [2]: 96 % of control | T/C [3]: 189 % of control | T/C [4]: 109 % of control and 209 % of control | T/C (dose: 100.0 mg/kg/injection, schedule: Q04DX003 (ip), vehicle: saline): 106 % of control | T/C (dose: 200.0 mg/kg/injection, schedule: Q01DX001 (ip), vehicle: saline with Tween-80): 106 % of control | T/C [5]: 102 % of control | T/C [6]: 156 % of control | T/C (dose: 200.0 mg/kg/injection, schedule: Q04DX003 (ip), vehicle: saline): 111 % of control | T/C (dose: 400.0 mg/kg/injection, schedule: Q01DX001 (ip), vehicle: saline with Tween-80): 104 % of control | T/C [7]: 96 % of control

CCCCCCCCSC(=S)S.[Fe]
T/C (dose: 100.0 mg/kg/injection, schedule: Q04DX002 (ip), vehicle: Klucel (hydroxypropylcellulose) (HPC)): 88 % of control | T/C (dose: 200.0 mg/kg/injection, schedule: Q04DX002 (ip), vehicle: Klucel (hydroxypropylcellulose) (HPC)): 95 % of control | T/C (dose: 400.0 mg/kg/injection, schedule: Q04DX002 (ip), vehicle: Klucel (hydroxypropylcellulose) (HPC)): 91 % of control

Nc1ccc(OCC(=O)Nc2ccc(S(=O)(=O)F)cc2)cc1
T/C [8]: 101 % of control | T/C [9]: 103 % of control

O=C(Cc1ccccc1)NCc1ccccc1Cl
T/C [10]: 103 % of control | T/C [1]: 94 % of control | T/C [2]: 96 % of control and 87 % of control | T/C [3]: 96 % of control | T/C (dose: 150.0 mg/kg/injection, schedule: Q01DX009 (ip), vehicle: saline with Tween-80): 89 % of control | T/C [6]: 107 % of control | T/C (dose: 225.0 mg/kg/injection, schedule: Q01DX009 (ip), vehicle: saline with Tween-80): 94 % of control | T/C (dose: 335.0 mg/kg/injection, schedule: Q01DX009 (ip), vehicle: saline with Tween-80): 91 % of control | T/C [11]: 111 % of control

CCOC(=O)C(CCSC(C)=O)SC(C)=O (stereo not given)
T/C [10]: 94 % of control | T/C [1]: 96 % of control | T/C [2]: 89 % of control | T/C [4]: 95 % of control | T/C [12]: 92 % of control

CC(C)=CCC/C(C)=C\C1N(C)CCCN1C
T/C [10]: 92 % of control | T/C (dose: 25.0 mg/kg/injection, schedule: Q04DX003 (ip), vehicle: saline with Tween-80): 98 % of control | T/C [1]: 88 % of control | T/C (dose: 50.0 mg/kg/injection, schedule: Q04DX003 (ip), vehicle: saline with Tween-80): 92 % of control

OC(c1ccc(OCc2ccccc2)cc1)c1nccc2ccccc12 (stereo not given)
T/C (dose: 100.0 mg/kg/injection, schedule: Q01DX001 (ip), vehicle: acetone): 88 % of control

CC(C)(C)OC(=O)NC(CSC(c1ccccc1)(c1ccccc1)c1ccccc1)C(=O)NC(Cc1ccccc1)C(=O)NCC(=O)O (stereo not drawn) (Boc-Cys(Trt)-Phe-Gly-OH; configuration not given here)
T/C (dose: 75.0 mg/kg/injection, schedule: Q01DX001 (ip), vehicle: saline): 93 % of control | T/C (dose: 150.0 mg/kg/injection, schedule: Q01DX001 (ip), vehicle: saline): 91 % of control

CCOC(=O)Nc1cc(NCc2ccccc2)c(N)c(N)n1
T/C [8]: 96 % of control | T/C [9]: 97 % of control

Cc1ncc2n1C=CN(C(=O)c1ccc([N+](=O)[O-])cc1)C2O (stereo not given)
T/C (dose: 100.0 mg/kg/injection, schedule: Q01DX009 (ip), vehicle: water): 98 % of control | T/C (dose: 200.0 mg/kg/injection, schedule: Q01DX009 (ip), vehicle: water): 98 % of control | T/C (dose: 400.0 mg/kg/injection, schedule: Q01DX009 (ip), vehicle: water): 93 % of control

CC(=O)CCCC1C(=O)N(c2ccccc2)N(c2ccccc2)C1=O
T/C [13]: 102 % of control | T/C [14]: 101 % of control | T/C [15]: 96 % of control

O=c1ccn(C2CC(O)C(CO)C2)c(=S)[nH]1 (stereo not given)
T/C [1]: 103 % of control | T/C [2]: 107 % of control | T/C [5]: 93 % of control

CCOC(=O)c1ccc(NS(C)(=O)=O)cc1
T/C [16]: 95 % of control | T/C [13]: 114 % of control | T/C [17]: 95 % of control | T/C [14]: 102 % of control | T/C [18]: 92 % of control | T/C [15]: 100 % of control

CCOC(=O)NC1CCc2ccccc21 (stereo not given)
T/C [8]: 98 % of control | T/C [9]: 104 % of control | T/C [19]: 93 % of control

O=C(CNC(=O)NCc1ccccc1)N/N=C/c1ccccc1O
T/C [1]: 89 % of control | T/C [2]: 103 % of control | T/C [5]: 97 % of control

COc1c(NC(=O)COc2ccc(Cl)cc2)cccc1[N+](=O)[O-]
T/C [2]: 96 % of control | T/C [5]: 100 % of control | T/C [20]: 94 % of control

CN(C(=O)c1ccccc1Cl)C(c1ccco1)P(=O)(c1ccccc1)c1ccccc1 (stereo not given)
T/C [2]: 93 % of control | T/C [3]: 93 % of control | T/C [5]: 90 % of control | T/C [6]: 90 % of control | T/C [20]: 87 % of control | T/C [11]: 90 % of control

O=C(OCC1COc2ccccc2O1)C(F)(F)F (stereo not given)
T/C (dose: 100.0 mg/kg/injection, schedule: Q01DX001 (ip), vehicle: carboxymethylcellulose (CMC)): 95 % of control | T/C (dose: 200.0 mg/kg/injection, schedule: Q01DX001 (ip), vehicle: carboxymethylcellulose (CMC)): 93 % of control | T/C (dose: 400.0 mg/kg/injection, schedule: Q01DX001 (ip), vehicle: carboxymethylcellulose (CMC)): 98 % of control

Cc1cc(N(C)C)nc(SCc2ccc(F)cc2)n1
T/C (dose: 200.0 mg/kg/injection, schedule: Q01DX Z (ip), vehicle: methylcellulose (MC)): 96 % of control

c1ccc(Nc2ncc3cnccn23)cc1
T/C (dose: 25.0 mg/kg/injection, schedule: Q01DX009 (ip), vehicle: saline): 96 % of control | T/C (dose: 50.0 mg/kg/injection, schedule: Q01DX009 (ip), vehicle: saline): 90 % of control | T/C (dose: 100.0 mg/kg/injection, schedule: Q01DX009 (ip), vehicle: saline): 97 % of control

O=c1[nH]nc(SCc2ccccc2)c(=O)[nH]1
T/C [8]: 108 % of control | T/C [9]: 92 % of control | T/C [19]: 109 % of control

O=C1C=CC(=Nc2ccccc2Cl)O1
T/C [2]: 95 % of control | T/C [5]: 93 % of control | T/C [20]: 94 % of control

CC(=O)Nc1ncc(/C=C/C=C/c2ccc([N+](=O)[O-])cc2)c(NC(C)=O)n1
T/C (dose: 100.0 mg/kg/injection, schedule: Q01DX001 (ip), vehicle: Klucel (hydroxypropylcellulose) (HPC)): 91 % of control | T/C (dose: 200.0 mg/kg/injection, schedule: Q01DX001 (ip), vehicle: Klucel (hydroxypropylcellulose) (HPC)): 86 % of control | T/C (dose: 400.0 mg/kg/injection, schedule: Q01DX001 (ip), vehicle: Klucel (hydroxypropylcellulose) (HPC)): 87 % of control

S=c1nc[nH]c2ccccc12
T/C [16]: 93 % of control | T/C [13]: 91 % of control | T/C [17]: 95 % of control | T/C [14]: 94 % of control | T/C [18]: 88 % of control | T/C [15]: 98 % of control

COC(C)(OC)C(N)=O
T/C [2]: 96 % of control | T/C [13]: 94 % of control | T/C [5]: 111 % of control | T/C [14]: 96 % of control | T/C [20]: 98 % of control | T/C [15]: 92 % of control

CCCCCCCCCCCCCCCC(O)S(=O)(=O)O (stereo not given)
T/C [4]: 92 % of control | T/C [12]: 97 % of control

CCOC(=O)CC1C(=O)Oc2ccc(O)cc21 (stereo not given) (tested in a mixture with another compound)
T/C [2]: 100 % of control | T/C [4]: 96 % of control | T/C [5]: 97 % of control | T/C [12]: 110 % of control | T/C [20]: 90 % of control | T/C [7]: 94 % of control

S=c1nc(-c2ccccc2)[nH][nH]1
T/C [4]: 97 % of control | T/C [12]: 98 % of control | T/C [7]: 88 % of control
